Measured values from patent US20210395309A1, “PEPTIDE-DRUG CONJUGATES” (Hong Kong Baptist University, priority 2020, published 2021).
“Also recorded” adds a separate entry of the source. Like-named read-outs stand apart in the source and are kept apart here. Where a SMILES comes first, the peptide text is derived from it. The star is where a group is joined. Paclitaxel(2'-O-succinyl) = CC(=O)O[C@H]1C(=O)[C@@]2(C)[C@H]([C@H](OC(=O)c3ccccc3)[C@]3(O)C[C@H](OC(=O)[C@H](OC(=O)CCC(=O)*)[C@@H](NC(=O)c4ccccc4)c4ccccc4)C(C)=C1C3(C)C)[C@]1(OC(C)=O)CO[C@@H]1C[C@@H]2O

Tests used:
[1] = system: HEK293T (ACE-negative) cells; test: MTT cytotoxicity assay in ACE-negative HEK293T; assay type: cell-based, human; details: 48 h, mean (95% CI)
Protocol: (§1) MTT assays were performed to study the in vitro antitumor effects of BPP-PTX conjugate as well as free PTX and BPP in various ACE-negative and ACE-positive cell lines. Briefly, the cells (5,000 per well) were seeded in 96-well plates 24 h before treatment. The different drug formulations at concentrations of 0.01-1000 nM PTX or 0.01-1000 nM BPP-PTX and free BPP were added. The cells were cultured for another 48 h. 20 μL of 3-(4,5-dimethylthiazol-2-yl)-2,5-diphenyltetrazolium bromide (MTT) solution (5 mg/mL) was added. The cells were further cultured for 4 h, the medium was removed, and 150 μL DMSO was added to dissolve the MTT-formazan crystals. The optical density (O.D.) values for the untreated group were set as 100% viability. Independent experiments were performed in triplicate.
(§2) Each experiment was performed at least three times. GraphPad Prism 6.0 software was used for IC50 calculations and statistical analyses, including student t-test and two-way ANOVA.

[2] = for body weight decrease compared with control mice: day 28
Protocol: Mice were kept at room temperature 25° C. with an alternating 12 h light-dark cycle and were allowed access to food and water. […] MDA-MB-468 cells (5×10^6 cells per mouse) were suspended in PBS and inoculated subcutaneously into the fourth mammary fat pad of athymic nude mice. Tumor growth was monitored every four days by measuring two perpendicular diameters with calipers. […] The tumors were measured with calipers every day, and tumor volumes were calculated using the following formula: a^2×b×0.4, where “a” is the smallest diameter and “b” is the diameter perpendicular to “a”. At the end of the experiment, the mice were sacrificed, and the tumor weights of each animal were analyzed. Blood samples (˜100 μL) were taken from the retro-orbital plexus in heparinized capillary tubes (Modulohm A/S, Herlev, Denmark). Total white blood cell counts were determined manually for each sample using a Neubauer chamber (GMBH, Wertheim, Germany).

[3] = system: MDA-MB-468 (ACE-positive) cells; test: MTT cytotoxicity assay in ACE-positive TNBC MDA-MB-468; assay type: cell-based, human; details: 48 h, mean (95% CI)
Protocol: as §1, §2

[4] = system: MDA-MB-231 (ACE-positive) cells; test: MTT cytotoxicity assay in ACE-positive TNBC MDA-MB-231; assay type: cell-based, human; details: 48 h, mean (95% CI)
Protocol: as §1, §2

MDA-MB-468-siACE cells = test: Cytotoxicity in ACE-knockdown MDA-MB-468-siACE versus MDA-MB-468-siCtr; assay type: cell-based, human; details: 10- and 100 nM
Protocol: (§3) ACE siRNA (h2) (sc-270350) and Control siRNA-A (sc-37007) were purchased from Santa Cruz Biotechnology, Inc. The ACE expression plasmid was bought from Gen Script (Nanjing) Co., Ltd. Transfections were carried out using Lipofectamine 2000 (Invitrogen) according to the manufacturer's instructions.
as §1
(§4) Next, it was determined whether the cytotoxicity of BPP-PTX was mediated by ACE or not. First, the ACE protein was artificially overexpressed in HEK293T cell lines by transfecting ACE-containing plasmid, and the empty plasmid was transfected as a control. […]

MDA-MB-231-siACE cells = test: Cytotoxicity in ACE-knockdown MDA-MB-231-siACE versus MDA-MB-231-siCtr; assay type: cell-based, human; details: 10- and 100 nM
Protocol: as §3, §1, §4

[5] = system: MDA-MB-231 and MDA-MB-468 cells; test: DAPI staining of nuclei for apoptosis; assay type: cell-based, human; details: 10 nM
Protocol: The occurrence of apoptosis was evaluated by DAPI staining. Cells (4.0×10^5 cells/well) were seeded and incubated with 10 nM PTX or BPP-PTX for 24 h. Following treatment, the cells were washed with phosphate-buffered saline (PBS) and fixed with 4% paraformaldehyde (Sigma-Aldrich) for 15 min at room temperature 25° C., and then stained in the dark with a DAPI solution for 10 min at room temperature 25° C. Thereafter, the cells were washed with PBS and photographed under an inverted fluorescence microscope (Olympus IX71; Olympus, Tokyo, Japan).

MDA-MB-468 cells [6] = test: TNBC orthotopic mouse model, tumor growth; assay type: in vivo
Protocol: To test the in vivo efficacy and toxicity of BPP-PTX, an orthotopic mouse model was established. ACE-positive MDA-MB-468 cells were injected orthotopically in the mammary fat pads of the female athymic nude mouse. Once mice attained palpable tumors, they were randomly divided into four groups and treated for 28 days with PBS, free PTX (2.4 μmol/kg), low dose BPP-PTX (2.4 μmol/kg), and high-dose BPP-PTX (9.6 μmol/kg), every 4 days by intraperitoneal injection (i.p.). Tumor growth was monitored by measuring tumor volume every 4 days with a caliper rule. On day 4, after the first injection, the effect of the drugs was not yet detectable since average tumor volumes, as measured with the caliper, were similar in the four groups of mice. […] On day 28, the average tumor volume of mice treated with low-dose BPP-PTX had decreased by about 15% compared to animals treated with free PTX, and by 54% compared to control animals (PBS). Meanwhile, the average tumor volume of mice treated with high-dose BPP-PTX, had decreased by about 30% compared to animals treated with free PTX, and by 62% compared to control animals (FIGS. 5A and 5B). Consistently, the average tumor weight of mice treated with low-dose BPP-PTX was 0.20 g (0.17, 0.24) lower than that of mice treated with free PTX (0.26 g (0.21, 0.31)) and control mice (0.43 g (0.37, 0.49)).

MDA-MB-468 cells [7] = test: Annexin V-FITC/PI apoptosis assay, flow cytometry; assay type: cell-based, human; details: 10 nM, 48 h
Protocol: (§5) 1×10^5 MDA-MB-231 or 1.5×10^5 MDA-MB-468 cells per well were cultured in 6-well plates. After attachment, cells were treated with DMSO or 10 nM PTX or BPP-PTX for 48 h and stained with Annexin V (AV) conjugated with FITC and propidium iodide (PI) using the Annexin V-FITC Apoptosis Assay Kit following the manufacturer's instructions. Stained cells were analyzed with the Cyflow Cube flow cytometer (PARTEC, Germany). Data were analyzed using FlowJo 7.6.5 software.

MDA-MB-231 cells = test: Annexin V-FITC/PI apoptosis assay, flow cytometry; assay type: cell-based, human; details: 10 nM, 48 h
Protocol: as §5

HEK293T-ACE cells = test: Cytotoxicity in ACE-overexpressed HEK293T-ACE versus control HEK293T; assay type: cell-based, human; details: 1-, 10-, and 100 nM; ACE plasmid vs empty plasmid
Protocol: as §3, §1, §4

## CC[C@H](C)[C@H](NC(=O)[C@H](CCC(N)=O)NC(=O)[C@@H]1CCCN1C(=O)[C@H](CCCNC(=N)N)NC(=O)[C@@H]1CCCN1C(=O)[C@H](Cc1c[nH]c2ccccc12)NC(=O)[C@H](CCC(=O)O)NC(=O)CCC(=O)O[C@@H](C(=O)O[C@H]1C[C@@]2(O)[C@@H](OC(=O)c3ccccc3)[C@@H]3[C@]4(OC(C)=O)CO[C@@H]4C[C@H](O)[C@@]3(C)C(=O)[C@H](OC(C)=O)C(=C1C)C2(C)C)[C@@H](NC(=O)c1ccccc1)c1ccccc1)C(=O)N1CCC[C@H]1C(=O)N1CCC[C@H]1C(N)=O [BPP-PTX] ({Paclitaxel(2'-O-succinyl)}-EWPRPQIPP-NH2)
[1]
  IC50: 616 nM
[2]; 2.4 μmol/kg i.p. every 4 days
  WBC count decrease after the 28-day treatment compared to before treatment: about 17%
  body weight decrease compared with control mice: ~2.8%
[2]; 9.6 μmol/kg i.p. every 4 days
  WBC count decrease after the 28-day treatment compared to before treatment: ~22%
  body weight decrease compared with control mice: ~6.4%
[2]; day 0 to day 24, low dose 2.4 μmol/kg
  body weight loss compared with control mice: no body weight loss
[3]
  IC50: 12.3 nM
[4]
  IC50: 9.5 nM

## CC(=O)O[C@H]1C(=O)[C@@]2(C)[C@H]([C@H](OC(=O)c3ccccc3)[C@]3(O)C[C@H](OC(=O)[C@H](O)[C@@H](NC(=O)c4ccccc4)c4ccccc4)C(C)=C1C3(C)C)[C@]1(OC(C)=O)CO[C@@H]1C[C@@H]2O [PTX, Paclitaxel]
MDA-MB-468-siACE cells
  cell variability in siACE cells compared with siCtr cells: no difference
MDA-MB-231-siACE cells
  cell variability in siACE cells compared with siCtr cells: no difference
[5]
  nuclei morphology (DAPI): condensed and fragmented
[1]; Homo sapiens, HEK-293T
  IC50: 6.7 nM
[2]; 2.4 μmol/kg i.p. every 4 days
  WBC count decrease after the 28-day treatment compared to before treatment: about 52%
  body weight decrease compared with control mice: about 6.2%
MDA-MB-468 cells [6]; end of 28-day treatment, 2.4 μmol/kg i.p. every 4 days
  average tumor weight: 0.26 g
MDA-MB-468 cells [6]; i.p. every 4 days, 28 days, PTX 2.4 μmol/kg, BPP-PTX 2.4 and 9.6 μmol/kg
  tumor growth compared with control mice: significantly lower; also recorded: clear reduction
MDA-MB-468 cells [7]
  apoptosis: induced apoptosis
MDA-MB-231 cells
  apoptosis: induced apoptosis
[3]; Homo sapiens
  IC50: 3 nM
[4]; Homo sapiens
  IC50: 3.1 nM
HEK293T-ACE cells
  cell variability in HEK293T-ACE compared with HEK293T: No differences
